# Source: US6583147B1, “Pyrazolopyrimidinone derivatives for the treatment of impotence” (Dong A Pharm Co., Ltd., priority 1998, dated 2003)
# What was measured:
# rats = test: Penile erection test using rats; format: in vivo, rat; details: oral single dose 10 mg/kg in 0.5% methyl cellulose, observed for 2 hours
# [1] = molecular target: T1, Phosphodiesterase-5 enzyme (PDE 5) (Homo sapiens, UniProt O76074); test: Test for phosphodiesterase-5 (PDE 5) activity; format: biochemical; details: PDE 5 fraction from human corpus cavernosal tissues
# T1 construct: separated by HPLC (Mono Q anion exchange column) with concentration gradient of 0-500 mM NaCl to elute PDE isozymes; from tissue; host or cells: human corpus cavernosal tissue
# [2] = Acute oral toxicity test in rats; details: SD, rat, in vivo, 1 g/kg; rats, oral single dose; read-out: lethal dose (LD50) of oral administration
Compound,PEI (penile erection index) (rats),genital grooming (number of genital groomings) (rats),IC50 [1] [nM],LD50 [2] [mg/kg]
"CCCc1nn(C)c2c(=O)[nH]c(-c3cc(S(=O)(=O)NC(C)C)ccc3OCC)nc12 [Example 1, 5-[2-ethoxy-5-(isopropylamidosulfonyl)phenyl]-1-methyl-3-propyl-1,6-dihydro-7H-pyrazolo(4,3-d)pyrimidin-7-one]",366.7 ± 38.5,3.0 ± 1.0,8.63,> 1000
"CCCc1nn(CC)c2c(=O)[nH]c(-c3cc(S(=O)(=O)NC(C)C)ccc3OCC)nc12 [Example 5, 5-[2-ethoxy-5-(isopropylamidosulfonyl)phenyl]-1-ethyl-3-propyl-1,6-dihydro-7H-pyrazolo(4,3-d)pyrimidin-7-one]",266.7 ± 57.7,3.3 ± 1.2,19.6,> 1000
"CCCNS(=O)(=O)c1ccc(OCC)c(-c2nc3c(CCC)nn(C)c3c(=O)[nH]2)c1 [Example 7, 5-[2-ethoxy-5-(propylamidosulfonyl)phenyl]-1-methyl-3-propyl-1,6-dihydro-7H-pyrazolo(4,3-d)pyrimidin-7-one]",200.0 ± 0.0,6.7 ± 3.8,20.7,> 1000
"CCCNS(=O)(=O)c1ccc(OCC)c(-c2nc3c(CCC)nn(CC)c3c(=O)[nH]2)c1 [Example 8, 5-[2-ethoxy-5-(propylamidosulfonyl)phenyl]-1-ethyl-3-propyl-1,6-dihydro-7H-pyrazolo(4,3-d)pyrimidin-7-one]",200.0 ± 100.0,3.0 ± 1.0,25.3,> 1000
"CCCc1nn(C)c2c(=O)[nH]c(-c3cc(S(=O)(=O)NC(C)CC)ccc3OCC)nc12 (stereo not shown) [Example 10, 5-[2-ethoxy-5-(2-butylamidosulfonyl)phenyl]-1-methyl-3-propyl-1,6-dihydro-7H-pyrazolo(4,3-d)pyrimidin-7-one]",466.7 ± 305.5,4.0 ± 1.7,3.78,> 1000
"CCCc1nn(C)c2c(=O)[nH]c(-c3cc(S(=O)(=O)NC4CC4)ccc3OCC)nc12 [Example 13, 5-[2-ethoxy-5-(cyclopropylamidosulfonyl)phenyl]-1-methyl-3-propyl-1,6-dihydro-7H-pyrazolo(4,3-d)pyrimidin-7-one]",300.0 ± 100.0,4.3 ± 1.2,21.7,> 1000
"CCCc1nn(CC)c2c(=O)[nH]c(-c3cc(S(=O)(=O)NC4CC4)ccc3OCC)nc12 [Example 14, 5-[2-ethoxy-5-(cyclopropylamidosulfonyl)phenyl]-1-ethyl-3-propyl-1,6-dihydro-7H-pyrazolo(4,3-d)pyrimidin-7-one]",233.3 ± 57.7,3.0 ± 1.0,79.5,> 1000
"CCCc1nn(C)c2c(=O)[nH]c(-c3cc(S(=O)(=O)NC4CCCCC4)ccc3OCC)nc12 [Example 19, 5-[2-ethoxy-5-(cyclohexylamidosulfonyl)phenyl]-1-methyl-3-propyl-1,6-dihydro-7H-pyrazolo(4,3-d)pyrimidin-7-one]",233.3 ± 57.7,5.0 ± 0.0,4.98,> 1000
"CCCOc1ccc(S(=O)(=O)NCc2ccccc2)cc1-c1nc2c(CCC)nn(C)c2c(=O)[nH]1 [Example 23, 5-[2-propyloxy-5-(benzylamidosulfonyl)phenyl]-1-methyl-3-propyl-1,6-dihydro-7H-pyrazolo(4,3-d)pyrimidin-7-one]",266.7 ± 57.7,3.0 ± 1.0,12.7,> 1000
"CCCc1nn(CC)c2c(=O)[nH]c(-c3cc(S(=O)(=O)NCc4ccccc4)ccc3OCC)nc12 [Example 24, 5-[2-ethoxy-5-(benzylamidosulfonyl)phenyl]-1-ethyl-3-propyl-1,6-dihydro-7H-pyrazolo(4,3-d)pyrimidin-7-one]",233.3 ± 230.9,2.7 ± 2.9,86,> 1000
"CCCc1nn(C)c2c(=O)[nH]c(-c3cc(S(=O)(=O)Nc4ccc(F)cc4)ccc3OCC)nc12 [Example 26, 5-[2-ethoxy-5-(4-fluorophenylamidosulfonyl)phenyl]-1-methyl-3-propyl-1,6-dihydro-7H-pyrazolo(4,3-d)pyrimidin-7-one]",133.3 ± 133.3,4.0 ± 1.7,74.6,> 1000
"CCCc1nn(C)c2c(=O)[nH]c(-c3cc(S(=O)(=O)Nc4ccc(C(C)(C)C)cc4)ccc3OCC)nc12 [Example 28, 5-[2-ethoxy-5-(4-t-butylphenylamidosulfonyl)phenyl]-1-methyl-3-propyl-1,6-dihydro-7H-pyrazolo(4,3-d)pyrimidin-7-one]",300.0 ± 100.0,3.0 ± 1.0,46.6,> 1000
"CCCc1nn(CC)c2c(=O)[nH]c(-c3cc(S(=O)(=O)Nc4ccc(C(C)(C)C)cc4)ccc3OCC)nc12 [Example 29, 5-[2-ethoxy-5-(4-t-butylphenylamidosulfonyl)phenyl]-1-ethyl-3-propyl-1,6-dihydro-7H-pyrazolo(4,3-d)pyrimidin-7-one]",233.3 ± 152.8,3.0 ± 2.0,49.8,> 1000
"CCCc1nn(C)c2c(=O)[nH]c(-c3cc(S(=O)(=O)Nc4ccc(C(C)C)cc4)ccc3OCC)nc12 [Example 31, 5-[2-ethoxy-5-(4-isopropylphenylamidosulfonyl)phenyl]-1-methyl-3-propyl-1,6-dihydro-7H-pyrazolo(4,3-d)pyrimidin-7-one]",300.0 ± 0,3.3 ± 0.6,30.6,> 1000
"CCCc1nn(CC)c2c(=O)[nH]c(-c3cc(S(=O)(=O)Nc4ccncc4)ccc3OCC)nc12 [Example 36, 5-[2-ethoxy-5-(4-pyridylamidosulfonyl)phenyl]-1-ethyl-3-propyl-1,6-dihydro-7H-pyrazolo(4,3-d)pyrimidin-7-one]",200.0 ± 173.2,1.3 ± 0.6,3.09,> 1000
"CCCc1nn(CC)c2c(=O)[nH]c(-c3cc(S(=O)(=O)Nc4cccnc4)ccc3OCC)nc12 [Example 40, 5-[2-ethoxy-5-(3-pyridylamidosulfonyl)phenyl]-1-ethyl-3-propyl-1,6-dihydro-7H-pyrazolo(4,3-d)pyrimidin-7-one]",177.8 ± 203.7,1.7 ± 1.5,8.7,> 1000
CCCc1nn(C)c2c(=O)[nH]c(-c3cc(S(=O)(=O)NCCC4CCCN4C)ccc3OCC)nc12 (stereo not shown) [Example 67],75.0 ± 61.2,1.8 ± 1.5,63,
